These results are taken from patent publication US20200360331A1, “COMPOSITIONS COMPRISING 15-HEPE AND/OR 15-HETrE AND METHODS OF TREATING OR PREVENTING CARDIOMETABOLIC DISEASE, METABOLIC SYNDROME, AND/OR RELATED DISEASES” (Afimmune Limited, priority 2019, published 2020).

Assay [1] concerns Collagen Type 1. In words: UUO study: quantitative RT-PCR of kidney, Collagen Type 1. The note with it: UUO mice kidney. It counts as in vivo, C57BL/6 mice. The method, then:
(§1) Quantitative RT-PCR: Total ribonucleic acid (RNA) was extracted from kidney samples using RNAiso (Takara Bio, Japan) according to the manufacturer's instructions. One μg of RNA was reverse-transcribed using a reaction mixture containing 4.4 micromolar (mM) of magnesium chloride (MgCl2) (F. Hoffmann-La Roche, Switzerland), 40 U RNase inhibitor (Toyobo, Japan), 0.5 mM dNTP (Promega, USA), 6.28 μM random hexamer (Promega), 5× first strand buffer (Promega), 10 mM dithiothreitol (Invitrogen, USA) and 200 U MMLV-RT (Invitrogen) in a final volume of 20 μL. The reaction was carried out for 1 hour at 37° C., followed by 5 minutes at 99° C. Real-time PCR was performed using real-time PCR DICE and TB Green™ Premix Ex Taq™ II (Takara Bio). To calculate the relative microRNA (mRNA) expression level, the expression of each gene (e.g., α-SMA, TIMP-1, TGF-β and Collagen Type 1) was normalized to that of reference gene 36B4 (gene symbol: Rplp0). Information regarding the PCR-primer sets and the plate layout are described in Tables 1 and 2.

The subject of a further assay is Alpha-SMA. In words: BDL study: quantitative RT-PCR of liver, Alpha-SMA. The assay is classed as in vivo, C57BL/6J mice. The note with it: BDL mice liver. The protocol:
as §1, with “from liver” for “from kidney”, “4.4 mM” for “4.4 micromolar (mM) of”, “relative mRNA” for “relative microRNA (mRNA)”, “gene (α-SMA,” for “gene (e.g., α-SMA,”, “Tables 8” for “Tables 1”, “and 9.” for “and 2.”

Assay [2] has as its system Collagen Type 1. In words: BDL study: quantitative RT-PCR of liver, Collagen Type 1. The note with it: BDL mice liver. The assay is classed as in vivo, C57BL/6J mice. The protocol: as §1, with “from liver” for “from kidney”, “4.4 mM” for “4.4 micromolar (mM) of”, “relative mRNA” for “relative microRNA (mRNA)”, “gene (α-SMA,” for “gene (e.g., α-SMA,”, “Tables 8” for “Tables 1”, “and 9.” for “and 2.”

In the next assay the target is T1, type II TGF-β receptor (Homo sapiens, UniProt P37173).
T1 construct: endogenous in cells; host or cells: HepG2
As to the kind of experiment: Degradation of type II TGF-β receptor in HepG2 cells. It counts as cell-based. The following applies: increasing doses for 1 hour, then 200 pM TGF-β for 48 hours. The method, then: The effects of 15-HEPE on TGF-β-induced signaling and cellular responses were determined. To test the effect of 15-HEPE on TGF-β-induced signaling, the activities of 15-HEPE to regulate TGF-β-stimulated Smad2 phosphorylation and nuclear translocation, both of which are key signaling events leading to TGF-β-induced cellular responses, were tested. One important biological activity of TGF-β is transcriptional activation of genes responsible for epithelial-mesenchymal transition (EMT), which is a crucial event in wound healing, tissue fibrosis, and cancer progression. The effect of 15-HEPE on TGFβ-induced epithelial mesenchymal transition related proteins (such as fibronectin, PAI-1, and N-cadherin etc.) expression in HepG2 and […] cells were assessed. HepG2 cells (human hepatoma cell line) were treated in increasing doses of 15-HEPE stage II in DMEM containing 0.1% of FBS for 1 hour and continually stimulated with or without 200 picomolar (pM) of TGF-β for 48 hours.
HepG2 cells (human hepatoma cell line) were treated in increasing doses of 15-HEPE stage II in DMEM containing 0.1% of FBS for 1 hour and continually stimulated with or without 200 picomolar (pM) of TGF-β for 48 hours. The two panels shown in FIG. 18A are two separate experiments run under the same experimental conditions.

In assay [3] the test system is TβR-III (type III TGF-β receptor, betaglycan). As to the kind of experiment: Sucrose density gradient analysis in Mv1Lu cells, TβR-III. The assay is classed as cell-based, mink. The note with it: 100 μM, 0, 1, 4 and 24 hours. The protocol: Sucrose gradient ultracentrifugation and confocal microscopy were used to identify 15-HEPE induced microdomain translocation of TGF-β receptors by sucrose. Sucrose density gradient analysis of TGF-β receptors was conducted in the plasma membranes of Mv1Lu cells (mink lung epithelial cell) treated with 100 μM of 15-HEPE and an equal volume of DMSO (dimethyl sulfoxide) at 37° C. for 0, 1, 4, and 24 hours, and the cell lysates from these treated cells were subjected to sucrose density gradient ultracentrifugation. The sucrose gradient fractions were then analyzed by Western blot analysis using anti-TβR-I (type I TGF-β receptor), anti-TβR-II (type II TGF-β receptor), anti-TβR-III (type III TGF-β receptor, betaglycan), anti-EGFR (epidermal growth factor receptor), and anti-caveolin-1 antibodies. The lipid raft/caveolae, and non-lipid raft microdomain localization of TβR-I, TβR-II, TβR-III, EGFR and caveolin-1 in the plasma membrane of untreated cells or cells treated with 15-HEPE were assessed to determine the effects of 15-HEPE on the membrane microdomain localization of the TGF-β receptors. […]

Where [4] appears, read: relative mRNA normalized to 36B4, 50 mg/kg PO QD Day 0-13.
[5] abbreviates: relative mRNA normalized to 36B4, 500 mg/kg PO QD Day 0-13.
Setting [6] is: relative mRNA normalized to 36B4, 250 mg/kg PO QD Day 0-13.

“Also recorded” adds a separate entry of the source.

T1 sequence (P37173 23-567): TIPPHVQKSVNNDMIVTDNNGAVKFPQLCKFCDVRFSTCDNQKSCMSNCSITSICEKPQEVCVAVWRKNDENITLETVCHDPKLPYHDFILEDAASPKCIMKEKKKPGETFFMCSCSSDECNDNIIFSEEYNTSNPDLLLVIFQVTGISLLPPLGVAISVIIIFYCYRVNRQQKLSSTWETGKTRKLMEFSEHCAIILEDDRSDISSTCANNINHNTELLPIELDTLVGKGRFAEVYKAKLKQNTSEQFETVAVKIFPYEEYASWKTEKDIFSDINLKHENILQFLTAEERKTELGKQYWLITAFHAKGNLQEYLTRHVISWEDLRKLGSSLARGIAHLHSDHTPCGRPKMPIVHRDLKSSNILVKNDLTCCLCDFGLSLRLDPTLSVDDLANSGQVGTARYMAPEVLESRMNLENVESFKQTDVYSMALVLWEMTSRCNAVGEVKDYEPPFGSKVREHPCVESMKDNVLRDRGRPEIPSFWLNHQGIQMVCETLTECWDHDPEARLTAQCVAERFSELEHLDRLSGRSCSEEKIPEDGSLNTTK

On to `CC/C=C\CC(O)/C=C/C=C\C/C=C\C/C=C\CCCC(=O)O` (centres unmarked) [DS102, 15-hydroxy-eicosa-5Z,8Z,11Z,13E,17Z-pentaenoic acid], for which the “Collagen Type 1 gene expression” value in the assay with Collagen Type 1 [1] (setting [4]) amounted to 11.80 ± 1.78; in the assay with Collagen Type 1 [1] (setting [5]) it was 14.09 ± 2.88; in the assay on Collagen Type 1 [2] (setting [4]) it was 4.94 ± 2.76; in the assay with Collagen Type 1 [2] (setting [6]), 4.21 ± 1.90; in the assay on Collagen Type 1 [2] (setting [5]), 2.51 ± 1.39. The “α-SMA mRNA expression level compared with the Vehicle group” value in the assay with Alpha-SMA (500 mg/kg) is “tended to decrease; also recorded: trend approaching significance”. Further, the “α-SMA mRNA expression level vs Vehicle group” value with Alpha-SMA (DS102 treatment groups) is “no significant differences”. For the same compound, the Alpha-SMA gene expression with Alpha-SMA (setting [4]) turned out to be 3.21 ± 1.67; in the assay on Alpha-SMA (setting [6]), 2.66 ± 1.33; with Alpha-SMA (setting [5]), 1.42 ± 0.75. For the same compound, the “Collagen Type 1 mRNA expression level compared with the Vehicle group” value in the assay on Collagen Type 1 [2] (500 mg/kg) was “tended to decrease; also recorded: trend approaching significance”. Moreover, the “Collagen Type 1 mRNA expression level vs Vehicle group” value in the assay with Collagen Type 1 [2] (DS102 treatment groups) is listed as “no significant differences”. For the same compound, the “degradation of type II TGF-β receptor” value on type II TGF-β receptor is on record as “induced degradation of type II TGF-β receptor”. Also, in assay [3], the “localization and abundance of TβR-III” value was “did not change the localization and abundance”.
